The test system of the assay is myocardial models composed of three-dimensional tissues (iPS-CM 75%/NHCF 25%). Description: Evaluation of drug response to isoproterenol (change rate of the number of beats of myocardial model). The class given is cell-based, human. Conditions: 100 nM isoproterenol, 30, 60, 80 min incubation, FIG. 12. How it is done: 5 mL of 10× phosphate buffered saline (PBS) was added to 50 mg of a pig skin-derived type I collagen (provided by NH Foods Ltd.), and was subjected to homogenization by using a homogenizer for 6 min. Subsequently, centrifugation was performed at 10000 rpm for 3 min to remove the supernatant. 5 mL of serum-free DMEM was added thereto, followed by washing by pipetting for 1 min. After the washing, centrifugation was performed at 10000 rpm for 3 min to remove the supernatant. 5 mL of serum-containing DMEM was added thereto to prepare a culture medium (CMF concentration: 9.8 mg/mL) having fragmented collagens (CMF) dispersed therein. Dispersions were weighed from the culture medium having CMF dispersed therein such that the amounts of CMFs were 0, 1, 2, and 3 mg, were mixed with 5×10^5 cells of iPS-CM 75%/NHCF 25%, and were seeded in a 96-well round-bottomed non-adherent plate (the amount of the culture medium: 300 μL). Subsequently, centrifugation was performed at 1100 g for 5 min to precipitate the CMFs and the cells. After the centrifugation, culturing was performed in a culture-ware at 37° C. The culture medium was replaced every 2 days by removing the old culture medium and adding 300 μL of new culture medium.
A three-dimensional tissue was constructed in the same manner as above. […] The content of the collagen in the three-dimensional tissue was measured using the kit above according to the standard protocol of the kit.
The cardiac rhythms of the tissues after culturing for 5 to 6 days were taken using a SONY Motion analyzer to measure the number of beats. […] From the results of measurement, the change rate of the number of beats (change rate of beating) by adding isoproterenol was calculated from the following equation. […]
The change rate of the number of beats caused by addition of isoproterenol is determined by the equation above, and this value is corrected by the equation below, i.e., by dividing this value by the change rate of the number of beats when the drug is not added (=a change in the number of beats caused by replacement of the culture medium).

“Also recorded” adds a separate entry of the source.

The record followed here is patent publication US20210063374A1, “ABNORMAL CARDIAC RHYTHM MYOCARDIAL MODEL AND METHOD FOR PRODUCING SAME, AGENT FOR FORMING ABNORMAL CARDIAC RHYTHM MYOCARDIAL MODEL, AND METHOD FOR EVALUATING DRUG EFFICACY OF HEART DISEASE THERAPEUTIC” (TOPPAN PRINTING CO., LTD., priority 2017, published 2021).

`CC(C)NCC(O)c1ccc(O)c(O)c1` (stereo not drawn) [isoproterenol]: the “drug response (change rate of the number of beats)” value (myocardial model with 0 mg CMFs) is listed as “poor”, the “drug response (change rate of the number of beats)” value (myocardial model with 1 mg CMFs) is given as “exhibited; also recorded: more favorable drug response” and the “drug response (change rate of the number of beats)” value (myocardial model with 3 mg CMFs) is reported as “exhibited”.
